The values below come from patent publication US20240197891A1, “PHARMACEUTICAL COMPOSITIONS COMPRISING POH DERIVATIVES” (UNIVERSITY OF SOUTHERN CALIFORNIA, priority 2021, published 2024).

The structures appear in SMILES notation. Entries after “also recorded” stand apart in the source; their conditions may differ.

Data set [1] concerns subcutaneous U-87 gliomas. The data set is described as follows: Nude mouse subcutaneous glioma model. The conditions noted are these: local application via Q-tip, 1 cc/application/day, 8 weeks; 60 days. The data set is classed as in vivo. How it is done:
Inhibition of tumor growth by butyryl-POH was studied in a nude mouse subcutaneous glioma model. Mice were injected with U-87 glioma cells (500,000 cells/injection) and allowed to form a palpable nodule over two weeks. Once palpable nodule was formed, the mice were treated with local application of various compounds as indicated in FIGS. 9A and 9B via a Q-tip (1 cc/application/day) over a period of 8 weeks.

The test system of another data set is normal astrocytes. Kind of data set: MTT cytotoxicity assay, normal astrocytes. To be noted: listed as TMZ-POH. How it is done:
(§1) MTT cytotoxicity assays were carried out after cells were treated with the TMZ-POH conjugate. The MTT cytotoxicity assays were carried out as described in Chen T C, et al. Green tea epigallocatechin gallate enhances therapeutic efficacy of temozolomide in orthotopic mouse glioblastoma models. Cancer Lett. 2011 Mar. 28; 302(2):100-8.
A general note: Tetrazolium assays rely on reduction of a dye to a coloured formazan, in cell work by metabolically active cells.

A further data set concerns U251 human glioma cells. Kind of data set: MTT cytotoxicity assay, U251 cells.
Text: (§2) In vitro efficacy of the present composition can be determined using methods well known in the art. For example, the cytotoxicity of the present monoterpene (or sesquiterpene) and/or the therapeutic agents may be studied by MTT [3-(4,5-dimethylthiazol-2-yl)-2,5-diphenyl tetrazolium bromide] cytotoxicity assay. MTT assay is based on the principle of uptake of MTT, a tetrazolium salt, by metabolically active cells where it is metabolized into a blue colored formazan product, which can be read spectrometrically. J. of Immunological Methods 65: 55 63, 1983. The cytotoxicity of the present monoterpene (or sesquiterpene) derivative and/or the therapeutic agents may be studied by colony formation assay. Functional assays for inhibition of VEGF secretion and IL-8 secretion may be performed via ELISA. Cell cycle block by the present monoterpene (or sesquiterpene) derivative and/or the therapeutic agents may be studied by standard propidium iodide (PI) staining and flow cytometry. Invasion inhibition may be studied by Boyden chambers. In this assay a layer of reconstituted basement membrane, Matrigel, is coated onto chemotaxis filters and acts as a barrier to the migration of cells in the Boyden chambers. Only cells with invasive capacity can cross the Matrigel barrier. Other assays include, but are not limited to cell viability assays, apoptosis assays, and morphological assays.
(§3) To compare the cytotoxicity of Rolipram POH Carbamate (POH-Rolipram) (e.g., synthesized by the method in Example 5) with rolipram, […] inducing differentiation and apoptosis in glioma cells, A172, U87, U251 and LN229 human glioma cells were treated with either POH-Rolipram or rolipram for 48 hours.
as §1

The test system of data set [2] is brain endothelial cells (BEC). Kind of data set: MTT cytotoxicity assay, brain endothelial cells. Format: cell-based. The text has this: (§4) Cancer Lett. 2011 Mar. 28; 302(2):100-8.
The subject of data set [3] is TMZ sensitive (U251) cells. Kind of data set: Colony forming assay, TMZ sensitive U251 cells. The data set is classed as cell-based, human. The procedure:
(§5) Colony forming assays were carried out after cells were treated with TMZ alone, POH alone, and the TMZ-POH conjugate. […] Cancer Lett. 2011 Mar. 28; 302(2):100-8.

The test system of data set [4] is TMZ resistant cells (U251TR). Kind of data set: MTT cytotoxicity assay, U251TR cells. How it is done: as §1
Data set [5] relates to tumor brain endothelial cells (TuBEC). The data set is described as follows: MTT cytotoxicity assay, tumor brain endothelial cells. Format: cell-based.
Text: as §4

Data set [6] deals with TMZ resistant (U251TR) U251 cells. The data set is described as follows: Colony forming assay, TMZ resistant U251TR cells. Format: cell-based, human. The procedure: as §5
Data set [7] deals with USC-04 glioma cancer stem cells. Kind of data set: MTT cytotoxicity assay, USC-04 glioma cancer stem cells. The conditions noted are these: USC-04, MTT. The data set is classed as cell-based.
Text: as §4

Data set [8] relates to ER stress (CHOP) in TMZ sensitive and resistant U251 glioma cells. Kind of data set: Western blot of ER stress in U251 glioma cells. The data set is classed as cell-based, human. To be noted: 18 hr. The procedure:
Western blots were performed after TMZ sensitive and resistant glioma cells were treated with the TMZ-POH conjugate for 18 hr. […] Activation of the proapoptotic protein CHOP was shown at concentrations as low as 60 uM of TMZ-POH.
Background: A western blot detects proteins with antibodies after separation by electrophoresis.

Data set [9] has as its system human malignant glioma cells U87, A172 and U251. The data set is described as follows: MTT cytotoxicity assays on U87, A172 and U251 cells (stated jointly). Format: cell-based. How it is done: J. of Immunological Methods 65: 55 63, 1983. […] Invasion inhibition may be studied by Boyden chambers.
Then U87, A172 and U251 cells were treated with dimethyl celecoxib bisPOH carbamate (POH-DMC) (e.g., synthesized by the method in Example 1), and the MTT cytotoxicity assays performed (FIG. 2).
Then TMZ-resistant glioma cell lines U87, A172 and U251 cells were treated with temozolomide POH carbamate (POH-TMZ) (e.g., synthesized by the method in Example 3).

Data set [10] deals with USC-02 glioma cancer stem cells. Kind of data set: MTT cytotoxicity assay, USC-02 glioma cancer stem cells. The data set is classed as cell-based. To be noted: USC-02, MTT.
Text: as §4

Another data set concerns U87 human glioma cells. The data set is described as follows: MTT cytotoxicity assay, U87 cells. The conditions noted are these: U-87 cells, 48 hours. The data set is classed as cell-based.
Text: as §2, with “assays. […]” for “assays.”

The test system of data set [11] is A172, U87, U251 and LN229 human glioma cells. Kind of data set: MTT assay, POH-Rolipram versus rolipram across glioma cell types (stated jointly). The data set is classed as cell-based. To be noted: each of A172, U87, U251, LN229; 48 hours.
Text: as §2, with “assays. […]” for “assays.”

The subject of another data set is LN229 human glioma cells. Kind of data set: cells.
Text: as §2, §3

The next data set concerns A172 human glioma cells. Kind of data set: MTT cytotoxicity assay, A172 cells. Format: cell-based. The conditions noted are these: A-172 cells, 48 hours.
Text: as §2, with “assays. […]” for “assays.”

Regarding `C=C(C)C1CC=C(COC(=O)CCC)CC1` (stereo not shown) [Butyryl-POH], the “inhibition of tumor growth” value in data set [1] was “greatest inhibition of tumor growth”.
For `C=C(C)C1CC=C(COC(=O)NC(=O)c2ncn3c(=O)n(C)nnc23)CC1` (stereo not shown) [POH-TMZ], the “cytotoxicity (MTT)” value in the data set with normal astrocytes is listed as “not towards normal astrocytes; also recorded: did not induce significant cytotoxicity”; in the data set on U251 human glioma cells (TMZ sensitive U251 cells, Example 9) it was “demonstrated cytotoxicity”; in [2] (confluent BEC), “did not induce significant cytotoxicity”; in [2] (subconfluent BEC, high concentrations), “Mild to moderate cytotoxicity”; in [4] it was “demonstrated cytotoxicity”; in data set [5], “did not induce significant cytotoxicity”. In addition, the “cytotoxicity (colony forming assay)” value in data set [3] (TMZ sensitive U251 cells) and in data set [6] was “demonstrated cytotoxicity” throughout. Further, in [3] (U251 and U251TR cells), the “potency in the colony forming assays compared to POH alone” value is reported as “substantially greater potency compared to POH alone”. Besides, the IC50 (commonly the concentration at which inhibition is half-maximal) in data set [7] came out at 150 µM; in data set [10] it was 60 µM. In addition, the “ER stress (ERS) induction” value in data set [8] (TMZ sensitive and resistant U251 cells) was “induces ER stress”. The “lowest concentration showing activation of the proapoptotic protein CHOP” value in data set [8] (western blot) came to 60 µM. In addition, the “cytotoxicity / kill rates (MTT)” value in data set [9] is listed as “substantially higher kill rates”.
Regarding `C=C(C)C1CC=C(COC(=O)N2CC(c3ccc(OC)c(OC4CCCC4)c3)CC2=O)CC1` (stereo not shown) [POH-rolipram, 4-(3-cyclopentyloxy-4-methoxyphenyl)-2-oxo-pyrrolidine-1-carboxylic acid 4-isopropenyl cyclohex-1-enylmethyl ester], in the data set with U251 human glioma cells, the “cytotoxicity at 100 uM” value is on record as ~100%. Moreover, the half-maximal inhibitory concentration (IC50) was 50 µM in the data set on U251 human glioma cells (U251 cells, MTT, 48 hours); 180 µM with U87 human glioma cells; 100 µM in the data set on LN229 human glioma cells (LN229 cells, MTT, 48 hours); 50 µM in the data set with A172 human glioma cells. Moreover, the “kill rates (MTT)” value in [11] is reported as “substantially higher kill rates compared to rolipram alone”. In the data set on LN229 human glioma cells, the “cytotoxicity at 10 uM” value is given as ~100%.
